# How the values were obtained:
# Format in all cases: physicochemical
# [1] = Destruction test: impurities in raw materials before destruction (HPLC); details: for Total impurities in raw materials before destruction: HPLC peak area normalization
# Description: The methods of destruction experiment of the Polymorph I of this invention (hereinafter referred to as “Polymorph I”) contrasting with the Polymorph A and B of 3-(4-amino-1-oxo-1,3-dihydro-2H-isoindole-2-yl)-piperidine-2,6-dione prepared by the method in CN 1871003A (hereinafter referred to as “Polymorph A” and “polymorph B”) and results of stability are followed:
# (§1) HPLC conditions and system applicability: octadecylsilane bonded silica as the filler; 0.01 mol/L of potassium dihydrogen phosphate (adjusted to pH 3.5 by phosphoric acid)-methanol-acetonitrile (80:15:5) as the mobile phase; detection wavelength was 240 nm; the number of theoretical plates should be not less than 2000, calculated according to the peak of lenalidomide. The resolution of the peak of 3-(4-amino-1-oxo-1,3-dihydro-2H-isoindole-2-yl)-piperidine-2,6-dione from the peaks of adjacent impurities should meet requirements.
# (§2) Determination method: sample was dissolved in mobile phase to be the solution containing 0.5 mg per 1 mL. 20 μL of such solution was injected into liquid chromatograph and chromatogram was recorded until fourfold the retention time of major component peak. If there were impurities peaks in the chromatogram of sample solution, total impurities and sole impurity were calculated by normalization method on the basis of peak area.
# [2] = Acid destruction (0.1 mol/L HCl), related substances by HPLC; details: for Major impurity, peak tR4.717-4.737 / Major impurity, peak tR7.367-7.381 / Major impurity, peak tR11.067-11.100 / Total impurities generated by 0.1 mol/L acid destruction for 1 hour: 0.1 mol/L HCl, room temperature, 1 hour; for Chemical stability (in words): acid condition / 0.1 mol/L diluted HCl solution
# Method: Acid destruction: 50 mg of sample weighted accurately was added into measuring flask of 100 mL, and 10 mL 0.1 mol/L HCl solution was added. After standing at room temperature for 1 hour, an equal amount of 0.1 mol/L NaOH solution was added for neutralization. Then the mixture was diluted with mobile phase to scale and shook to be homogeneous, and determined by HPLC.
# as §1, §2
# [3] = Oxidation destruction (30% H2O2), related substances by HPLC; details: for Major impurity, peak tR5.649-5.660 / Major impurity, peak tR10.372-10.401 / Major impurity, peak tR32.279-32.318 / Major impurity, peak tR35.063-35.098 / Total impurities generated by oxidation destruction: 30% H2O2, room temperature, 2 hour; for Chemical stability (in words): oxidating condition / oxidation destroy experiment
# Method: Oxidation destruction: 50 mg of sample weighted accurately was added into measuring flask of 100 mL, and 10 mL 30% H2O2 was added. After standing at room temperature for 2 hour, the mixture was diluted with mobile phase to scale and shook to be homogeneous, and determined by HPLC.
# as §1, §2
smiles,measurement,setting,value
"Nc1cccc2c1CN(C1CCC(=O)NC1=O)C2=O (single isomer, unassigned) [Polymorph B, 3-(4-amino-1-oxo-1,3-dihydro-2H-isoindole-2-yl)-piperidine-2,6-dione]","Major impurity, peak tR5.872-5.948",[1],0.01%
same,"Major impurity, peak tR6.847-6.855",[1],0.01%
same,"Major impurity, peak tR10.961-11.165",[1],0.05%
same,Total impurities in raw materials before destruction,[1],impurities: 0.07%
same,"Major impurity, peak tR4.717-4.737",[2],0.33%
same,"Major impurity, peak tR7.367-7.381",[2],0.72%
same,"Major impurity, peak tR11.067-11.100",[2],0.04%
same,Total impurities generated by 0.1 mol/L acid destruction for 1 hour,[2],impurities: 1.22%
same,Chemical stability (in words),[2],poor chemical stability
same,"Major impurity, peak tR5.649-5.660",[3],0.36%
same,"Major impurity, peak tR10.372-10.401",[3],0.11%
same,"Major impurity, peak tR32.279-32.318",[3],0.10%
same,"Major impurity, peak tR35.063-35.098",[3],0.13%
same,Total impurities generated by oxidation destruction,[3],impurities: 0.89%
same,Chemical stability (in words),[3],poor chemical stability
"Nc1cccc2c1CN(C1CCC(=O)NC1=O)C2=O (single isomer, unassigned) [Polymorph A, 3-(4-amino-1-oxo-1,3-dihydro-2H-isoindole-2-yl)-piperidine-2,6-dione]","Major impurity, peak tR5.872-5.948",[1],0.01%
same,"Major impurity, peak tR6.847-6.855",[1],0.01%
same,"Major impurity, peak tR10.961-11.165",[1],0.04%
same,Total impurities in raw materials before destruction,[1],impurities: 0.06%
same,"Major impurity, peak tR4.717-4.737",[2],0.33%
same,"Major impurity, peak tR7.367-7.381",[2],0.72%
same,"Major impurity, peak tR11.067-11.100",[2],0.04%
same,Total impurities generated by 0.1 mol/L acid destruction for 1 hour,[2],impurities: 1.13%
same,Chemical stability (in words),[2],poor chemical stability
same,"Major impurity, peak tR5.649-5.660",[3],0.39%
same,"Major impurity, peak tR10.372-10.401",[3],0.08%
same,"Major impurity, peak tR32.279-32.318",[3],0.08%
same,"Major impurity, peak tR35.063-35.098",[3],0.14%
same,Total impurities generated by oxidation destruction,[3],impurities: 0.82%
same,Chemical stability (in words),[3],poor chemical stability

# Source: patent publication US9101620B2, “Polymorph of 3-(substituteddihydroisoindolinone-2-yl)-2,6-dioxopiperidine, and pharmaceutical compositions thereof” (Nanjing Cavendish Bio-Engineering Technology Co., Ltd., priority 2009, dated 2015)
